# Test system: TFEB
# Assay: TFEB nuclear translocation assay
# Format: cell-based
# Conditions: Homo sapiens; HeLa wt or HeLa TRPML1 KO cells, treated for 2 hrs; ratio of nuclear to ring-region TFEB intensity
# Procedure: For the TFEB nuclear translocation assay, HeLa wt or HeLa TRPML1 KO cells were plated at 2700 cells/well into black-walled, 384-well Cell carrier Ultra tissue culture treated plates in complete media and incubated overnight. The next day, cells are treated for 2 hrs with compounds and incubated at 37° C. Cells were then fixed for 30 minutes at room temperature in 4% final PFA and washed five times with 90 μL PBS. PBS is aspirated from the wells and the cells are blocked with 7.5 μL blocking buffer (1.1 PBS/Odyssey block buffer containing 0.1% triton x-100 and 1% goat serum). After 30-60 minutes of block, 7.5 μL of primary anti-TFEB (rabbit) antibody is added for a final dilution of 1:200 antibody in 15 μL blocking buffer. Plates are incubated overnight at 4° C. The following day, plates are washed again into PBS, 90 μL with 5 washes, all PBS is aspirated from the wells and the cells are incubated for 1 hr in 1:1000 goat-anti rabbit Alexa 488 secondary antibody, also containing 10 μg/mL Hoechst 33342. After the 1 hr RT incubation, plates are washed a final time into PBS, sealed with foil and imaged with an automated epifluorescence microscopy (PerkinElmer Operetta CLS). Four different fields were imaged per well using ×20 magnification for DAPI and FITC filter sets. Images were quantified using PerkinElmer Harmony software, briefly: apply flatfield correction (basic/advanced) for input images. Use the Find Nuclei building block with channel set at Hoechst to find the nuclei. Use the Find cytoplasm building block with channel set to Alexa 488 to find the cytoplasm. Use select cell region with Channel set at Alexa 488 and region of interest as Nuclei and define outer border at 0 μm and inner at 45 μm to cover complete nuclei. Use select cell region with Channel set at Alexa 488 and region of interest as ring region and define outer border at −5 μm and inner at 0 μm to define a ring around the nucleus. Use the find calculate intensity parameter to calculate intensity of the nuclear region and the ring region. Define results as Number of nuclei and ratio of A/B where A is Intensity of Nuclei and B is intensity of the ring region.
row,EC50,Compound
1,2.01 to 8 µM,"O=S(=O)(c1ccc(C2CC2)cc1)N1CC2(CCCC2)c2ccccc21 [Compound I-29, 1′-(4-cyclopropylbenzenesulfonyl)-1′,2′-dihydrospiro[cyclopentane-1,3′-indole]]"
2,2.01 to 8 µM,"O=S(=O)(c1cccc(C2OCCO2)c1)N1CC2(CCCC2)c2ccccc21 [Compound I-27, 1′-[3-(1,3-dioxolan-2-yl)benzenesulfonyl]-1′,2′-dihydrospiro[cyclopentane-1,3′-indole]]"
3,2.01 to 8 µM,"CS(=O)(=O)c1ccc(S(=O)(=O)N2CC3(CCCC3)c3ccccc32)cc1F [Compound I-10, 1′-(3-fluoro-4-methanesulfonylbenzenesulfonyl)-1′,2′-dihydrospiro[cyclopentane-1,3′-indole]]"
4,2.01 to 8 µM,"O=S(=O)(Cc1ccc2c(c1)COCC2)N1CC2(CCCC2)c2ccccc21 [Compound I-34, 1′-[(3,4-dihydro-1H-2-benzopyran-7-yl)methanesulfonyl]-1′,2′-dihydrospiro[cyclopentane-1,3′-indole]]"
5,≤ 2 µM,"CN(C)S(=O)(=O)c1ccc(S(=O)(=O)N2CC3(CCOCC3)c3ccccc32)cc1 [Compound I-69, 4-({1,2-dihydrospiro[indole-3,4′-oxan]-1-yl}sulfonyl)-N,N-dimethylbenzene-1-sulfonamide]"
6,2.01 to 8 µM,"CC(C)C(=O)c1ccc(S(=O)(=O)N2CC3(CCCC3)c3ccccc32)cc1 [Compound I-3, 1-[4-({1′,2′-dihydrospiro[cyclopentane-1,3′-indol]-1′-yl}sulfonyl)phenyl]-2-methylpropan-1-one]"
7,2.01 to 8 µM,"O=S(=O)(c1cccc(C2CC2)c1)N1CC2(CCCC2)c2ccccc21 [Compound I-26, 1′-(3-cyclopropylbenzenesulfonyl)-1′,2′-dihydrospiro[cyclopentane-1,3′-indole]]"
8,≤ 2 µM,"O=S(=O)(Cc1ccccc1)N1CC2(CCCCC2)c2ccccc21 [Compound I-121, 1′-(benzylsulfonyl)spiro[cyclohexane-1,3′-indoline]]"
9,≥ 10 µM,"COC1Cc2ccc(S(=O)(=O)N3CC4(CCCC4)c4ccccc43)cc2C1 (stereo not shown) [Compound I-8, 1′-[(2-methoxy-2,3-dihydro-1H-inden-5-yl)sulfonyl]-1′,2′-dihydrospiro[cyclopentane-1,3′-indole]]"
10,2.01 to 8 µM,"CC1(C)OCc2ccc(S(=O)(=O)N3CC4(CCCC4)c4ccccc43)cc21 [Compound I-58, 1′-[(3,3-dimethyl-1,3-dihydro-2-benzofuran-5-yl)sulfonyl]-1′,2′-dihydrospiro[cyclopentane-1,3′-indole]]"
11,≤ 2 µM,"CN(C)S(=O)(=O)c1ccc(S(=O)(=O)N2CC3(CCN(CC(F)(F)F)C3)c3ccccc32)cc1 (stereo not shown) [Compound I-93, N,N-dimethyl-4-{[1′-(2,2,2-trifluoroethyl)-1,2-dihydrospiro[indole-3,3′-pyrrolidin]-1-yl]sulfonyl}benzene-1-sulfonamide]"
12,≥ 10 µM,"Cc1cc2n(n1)C1(CCCCC1)CN2S(=O)(=O)c1ccc2c(c1)C(C)(C)CO2 [Compound I-147, 1′-[(3,3-dimethyl-2,3-dihydro-1-benzofuran-5-yl)sulfonyl]-6′-methyl-1′,2′-dihydrospiro[cyclohexane-1,3′-pyrazolo[1,5-a]imidazole]]"
13,2.01 to 8 µM,"O=S(=O)(C1=Cc2ccccc2OCC1)N1CC2(CCCC2)c2ccccc21 [Compound I-40, 1′-(2,3-dihydro-1-benzoxepine-4-sulfonyl)-1′,2′-dihydrospiro[cyclopentane-1,3′-indole]]"
14,≥ 10 µM,"O=S(=O)([C@H]1C[C@@H]1c1cccc(F)c1)N1CC2(CCCC2)c2ccccc21 [Compound I-24, 1′{[(1S,2R)-2-(3-fluorophenyl)cyclopropyl]sulfonyl}-1′,2′-dihydrospiro[cyclopentane-1,3′-indole]]"
15,2.01 to 8 µM,O=S(=O)(Cc1ccccc1)N1CC2(CCN(CC(F)(F)F)C2)c2ccccc21 (stereo not shown) [Compound I-120]

row,Compound,EC50
1,"O=S(=O)(Cc1ccccc1)N1CC2(CCN(CC(F)(F)F)CC2)c2ccccc21 [Compound I-85, 1-phenylmethanesulfonyl-1′-(2,2,2-trifluoroethyl)-1,2-dihydrospiro[indole-3,4′-piperidine]]",≥ 10 µM

# From patent US20230416262A1, “TRPML MODULATORS” (Casma Therapeutics, Inc., priority 2020, published 2023)
